Assays:
[1] = test system: A2 receptors of PC12 cells; conditions: cited from earlier work
[2] = biological target: T1, A1 adenosine receptor (guinea pig atrium) (Cavia porcellus, UniProt P47745); test: Antagonism of adenosine agonists in isolated guinea pig left atrium (force of contraction); conditions: guinea pig atria; for antagonism of adenosine agonists in atria: result in words
T1 construct: The left atria from male guinea pigs were isolated; from tissue; host or cells: left atria of male guinea pigs
T1 sequence (P47745 1-326): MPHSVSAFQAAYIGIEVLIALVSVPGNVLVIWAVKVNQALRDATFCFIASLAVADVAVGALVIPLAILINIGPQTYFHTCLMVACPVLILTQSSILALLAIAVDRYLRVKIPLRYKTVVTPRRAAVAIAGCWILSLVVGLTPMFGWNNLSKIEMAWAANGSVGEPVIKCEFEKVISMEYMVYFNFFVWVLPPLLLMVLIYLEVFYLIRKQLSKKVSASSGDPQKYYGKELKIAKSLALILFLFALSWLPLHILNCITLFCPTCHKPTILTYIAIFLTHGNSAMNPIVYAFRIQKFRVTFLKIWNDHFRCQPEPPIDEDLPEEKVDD
Description: The left atria from male guinea pigs were isolated, suspended between two punctate electrodes, and placed in a 20 ml organ bath that contained Krebs-Hensileit solution that was continuously gassed with 95% O2 + 5% CO2 and maintained at 31° C. The resting tension was one gram. Theatria were stimulated electrically at 1 hz, 1 ms duration pulses at supramaximal voltage. The force of contraction was recorded isometrically.
(§1) The ability of the compounds to antagonize the effects of agonists was analyzed using modified Schild plots.

[3] = test system: A1 and A2 adenosine receptors; test: Activity at adenosine receptors, A1 versus A2 selectivity (overall); format: biochemical; conditions: for receptor selectivity A1 versus A2: in words; for stereoselectivity: A1 and A2 receptors
Description: (§2) Human platelet, rat pheochromocytoma (PC12) cell, rat fat cell and rat cerebral cortex membranes were prepared as described (4,5,6). Adenylate cyclase activity and binding [^3 H]PIA to cerebral cortex membranes were determined essentially as described (4,5,6). KB values for the compounds were determined as described (4). […] EC50 and IC50 values for the agonists were obtained from the concentration-response curves by linear regression after logit-log transformation. KB values of the antagonists were calculated using the Schild equation KB =C/(CR-1), where C denotes the concentration of the competitor and CR the ratio of the EC50 and IC50 values in the presence and absence, respectively, of the competitor. IC50 of the compounds for inhibition of [^3 H]PIA binding to cerebral cortex membranes were transformed into Ki values as described (6).

[4] = test system: A2 adenosine receptor (guinea pig taenia caecum); test: Antagonism of adenosine agonists in isolated guinea pig taenia caecum (contractile tone); conditions: for antagonism of adenosine agonists in taenia caecum: guinea pig taenia caecum relaxation; for sensitization of the tissue: guinea pig taenia caecum, high concentrations
Description: Taenia from the guinea pig caecum were cut into lengths of 1.5-2 cm. The tissues were suspended in a 20 ml organ bath containing de Jalon's solution that was gassed with 95% O2 + 5% CO2 and maintained at 31° C. The resting tension was 1.5 g. The contractile response was measured isotonically.
as §1

[5] = biological target: T2, A1 receptors of rat fat cells (Rattus norvegicus, UniProt P25099); test: Antagonism of R-PIA-induced inhibition of rat fat cell adenylate cyclase activity; format: biochemical; conditions: rat fat cell membranes, result in words
T2 sequence (P25099 1-326): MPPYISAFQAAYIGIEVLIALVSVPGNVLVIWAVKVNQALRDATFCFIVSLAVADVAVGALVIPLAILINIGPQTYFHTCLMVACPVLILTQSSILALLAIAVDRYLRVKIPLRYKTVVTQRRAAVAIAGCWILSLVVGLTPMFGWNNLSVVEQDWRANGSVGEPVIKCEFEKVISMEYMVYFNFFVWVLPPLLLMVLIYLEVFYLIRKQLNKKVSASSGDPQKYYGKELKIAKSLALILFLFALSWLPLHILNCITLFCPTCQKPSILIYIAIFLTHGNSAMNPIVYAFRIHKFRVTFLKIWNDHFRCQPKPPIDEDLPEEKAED
Description: as §2

[6] = biological target: A2 receptors of human platelets (Homo sapiens, UniProt P29274); test: Antagonism of NECA-induced stimulation of adenylate cyclase activity of human platelet membranes; format: biochemical; conditions: for antagonist potency at platelet A2 receptor: human platelet membranes, NECA-stimulated adenylate cyclase, result in words; for potency at platelet A2 receptor relative to PC12 A2 receptor: human platelets versus rat PC12 cells
Description: as §2
In these cells, A2 receptor-mediated stimulation of adenylate cyclase results in an inhibition of aggregation (5,7).

A1 receptors = biological target: T3, A1 receptors (Rattus norvegicus, UniProt P25099); test: Activity at A1 adenosine receptors (overall, fat cells and brain membranes); format: biochemical; conditions: discussion, fat cell and brain data
T3 sequence (P25099 1-326): T2 sequence (P25099 1-326)
Description: as §2

Sequence of A2 receptors of human platelets (P29274 whole entry): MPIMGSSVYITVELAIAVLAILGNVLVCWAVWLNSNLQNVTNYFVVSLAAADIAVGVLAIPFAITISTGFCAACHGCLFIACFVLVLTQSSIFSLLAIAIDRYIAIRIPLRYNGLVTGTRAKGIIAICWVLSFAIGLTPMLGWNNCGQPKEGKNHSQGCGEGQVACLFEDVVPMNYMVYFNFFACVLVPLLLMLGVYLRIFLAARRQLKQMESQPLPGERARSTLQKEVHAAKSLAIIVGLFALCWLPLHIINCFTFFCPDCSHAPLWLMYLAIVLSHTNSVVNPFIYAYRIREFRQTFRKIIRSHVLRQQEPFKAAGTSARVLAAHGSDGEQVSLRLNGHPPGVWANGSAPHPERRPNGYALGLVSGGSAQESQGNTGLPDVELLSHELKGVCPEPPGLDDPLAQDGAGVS

OC[C@H]1O[C@@H](n2cnc3c(NCCc4cccnc4)ncnc32)[C@H](O)[C@@H]1O [N^6-2-(3-pyridylethyl)-]
agonist potency at PC12 A2 receptors, in words [1]: more potent of the series

CCC(Cc1cccs1)Nc1ncnc2c1ncn2C (centres unmarked) [Example 23]
basal force of contraction in the atria [2]: increases in basal force of contraction | antagonism of adenosine agonists in atria [2]: competitive antagonists

Cn1c(=O)c2[nH]c(-c3ccccc3)nc2n(C)c1=O [Example 8-PT, 8-phenyltheophylline, reference compound]
receptor selectivity A1 versus A2 [3]: nonselective adenosine receptor antagonist | antagonism of adenosine agonists in taenia caecum [4]: did antagonize the effects of agonists at low concentrations | sensitization of the tissue [4]: sensitization effect is also observed

Cn1cnc2c(NC3CCCCC3)ncnc21 [Example 6, N^6 -Cyclohexyl-9-MA]
antagonist potency at A1 receptors of fat cells [5]: more potent than the parent compound 9-methyladenine | antagonist potency at platelet A2 receptor [6]: more potent than 9-methyladenine itself | receptor selectivity A1 versus A2 [3]: selective for receptors | activity at A1 receptors, in words (A1 receptors): most potent of N^6 -substituted 9-methyladenines at A1 receptors

C[C@H](Cc1ccccc1)Nc1ncnc2c1ncn2C [Example 16, N^6 - -- R-1-Phenyl-2-propyl-9-MA]
antagonist potency at A1 receptors of fat cells [5]: more potent than the parent compound at A1 receptors of fat cells | antagonist potency at platelet A2 receptor [6]: more potent than the S-isomer | antagonist potency at platelet A2 receptor ([6]; listed as R-1-phenyl-2-propyl-): enhance activity | stereoselectivity [3]: exhibit stereoselectivity at both A1 and A2 receptors

COc1cc(CCNc2ncnc3c2ncn3C)cc(OC)c1OC [Example 13]
antagonist potency at platelet A2 receptor [6]: as potent as 9-methyladenine | receptor selectivity A1 versus A2 [3]: selectivity for A2 receptors

OC[C@H]1O[C@@H](n2cnc3c(NC4CCCCC4)ncnc32)[C@H](O)[C@@H]1O [N^6 -cyclohexyl-]
agonist potency at PC12 A2 receptors, in words [1]: more potent of the series

C[C@@H](Cc1ccccc1)Nc1ncnc2c1ncn2C [Example 17, N^6 - -- S-1-Phenyl-2-propyl-9-MA]
antagonist potency at A1 receptors of fat cells [5]: more potent than the parent compound at A1 receptors of fat cells | stereoselectivity [3]: exhibit stereoselectivity at both A1 and A2 receptors

COc1cc(CCNc2ncnc3c2ncn3[C@@H]2O[C@H](CO)[C@@H](O)[C@H]2O)cc(OC)c1OC [N^6-2-(3,4,5-trimethoxyphenylethyl)-]
agonist potency at PC12 A2 receptors, in words [1]: more potent of the series

CNc1ncnc2c1ncn2C [Example 7, N^6 -Methyl-9-MA]
antagonist potency at A1 receptors of fat cells [5]: less potent than 9-methyladenine | antagonist potency at platelet A2 receptor [6]: much less potent than 9-methyladenine | activity at A1 receptors, in words (A1 receptors): reduces activity

Cn1cnc2c(Nc3ccccc3F)ncnc21 [Example 10, N^6-2-Fluorophenyl-9-MA]
antagonist potency at A1 receptors of fat cells [5]: more potent than 9-methyladenine in the fat cell | antagonist potency at platelet A2 receptor [6]: increases potency | antagonist potency at platelet A2 receptor ([6]; listed as 2-fluorophenyl-): enhance activity

Cn1cnc2c(NCc3ccccc3)ncnc21 [Example 11, N^6 -Benzyl-9-MA]
antagonist potency at platelet A2 receptor [6]: less potent than 9-methyladenine | activity at A1 receptors, in words (A1 receptors): modest activity

Cn1cnc2c(NCCc3cccnc3)ncnc21 [Example 14, N^6-2-(3-Pyridylethyl)-9-MA]
antagonist potency at platelet A2 receptor [6]: less potent than 9-methyladenine

Cn1cnc2c(NCCc3ccccc3)ncnc21 [Example 12, N^6-2-Phenethyl-9-MA]
antagonist potency at A1 receptors of fat cells [5]: much less potent | antagonist potency at platelet A2 receptor [6]: less potent than 9-methyladenine

Cn1cnc2c(NCCc3ccsc3)ncnc21 [Example 15, N^6-2-(3-Thienylethyl)-9-MA]
antagonist potency at A1 receptors of fat cells [5]: more potent than 9-methyladenine itself in the fat cell | antagonist potency at platelet A2 receptor [6]: somewhat more potent | antagonist potency at platelet A2 receptor ([6]; listed as 2-(3 -thienylethyl)-): enhance activity

CCC(CC)Nc1ncnc2c1ncn2C [Example 8, N^6-3-Pentyl-9-MA]
antagonist potency at A1 receptors of fat cells [5]: more potent than the aprent compound | basal force of contraction in the atria [2]: increases in basal force of contraction | antagonism of adenosine agonists in atria [2]: competitive antagonists | antagonist potency at platelet A2 receptor [6]: more potent | antagonist potency at platelet A2 receptor ([6]; listed as 3-pentyl-): enhance activity | potency at platelet A2 receptor relative to PC12 A2 receptor [6]: more potent at the platelet A2 receptor than at the PC12 A2 receptor | antagonism of adenosine agonists in taenia caecum [4]: did not competitively antagonize the effects of adenosine agonists | sensitization of the tissue [4]: some sensitization of the tissue

Cn1cnc2c(NC3CCC3)ncnc21 [Example 3, N^6 -Cyclobutyl-9-MA]
antagonist potency at A1 receptors of fat cells [5]: more potent than the parent compound 9-methyladenine | antagonist potency at platelet A2 receptor [6]: more potent than 9-methyladenine itself | receptor selectivity A1 versus A2 [3]: selective for receptors | activity at A1 receptors, in words (A1 receptors): most potent of N^6 -substituted 9-methyladenines at A1 receptors

OC[C@H]1O[C@@H](n2cnc3c(NCCc4ccccc4)ncnc32)[C@H](O)[C@@H]1O [N^6-2-phenethyl-]
agonist potency at PC12 A2 receptors, in words [1]: more potent of the series

Cn1cnc2c(Nc3ccccc3)ncnc21 [Example 9, N^6 -Phenyl-9-MA]
antagonist potency at A1 receptors of fat cells [5]: more potent than 9-methyladenine in the fat cell | antagonist potency at platelet A2 receptor [6]: equipotent to 9-methyladenine | potency at platelet A2 receptor relative to PC12 A2 receptor [6]: more potent at the platelet A2 receptor than at the PC12 A2 receptor
